Data taken from PubChem BioAssay AID1963961 (Molecular Pharmacology Branch, DTP, NCI, 2024).

Test system: K98450-129-R-PDC multicell spheroids, viability
Assay: Anticancer human tumor K98450-129-R-PDC patient-derived colon adenocarcinoma cell line growth inhibition [PI3K]
Details: for viability, T/C: stronger effect = lower value
Method in brief: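 We assembled tumor spheroids that included a stromal compartment of HUVEC and MSCs, then exposed them to targeted agents alone and together with PI3K pathway inhibitors. Concentration series descended by half-log from clinically achievable Cmax levels. Viability served as the endpoint.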

[1] = curve of first compound, second compound 0.0316 µM
[2] = curve of first compound, second compound 0.1 µM
[3] = curve of first compound, second compound 0.316 µM
[4] = curve of first compound, second compound 1 µM
[5] = curve of first compound, second compound 3.16 µM
[6] = curve of first compound, second compound 10 µM
[7] = second compound 0.0316 µM, first compound 0.0316 µM
[8] = second compound 0.0316 µM, first compound 0.1 µM
[9] = second compound 0.0316 µM, first compound 0.316 µM
[10] = second compound 0.0316 µM, first compound 1 µM
[11] = second compound 0.0316 µM, first compound 3.16 µM
[12] = second compound 0.0316 µM, first compound 10 µM
[13] = second compound 0.1 µM, first compound 0.0316 µM
[14] = second compound 0.1 µM, first compound 0.1 µM
[15] = second compound 0.1 µM, first compound 0.316 µM
[16] = second compound 0.1 µM, first compound 1 µM
[17] = second compound 0.1 µM, first compound 3.16 µM
[18] = second compound 0.1 µM, first compound 10 µM
[19] = second compound 0.316 µM, first compound 0.0316 µM
[20] = second compound 0.316 µM, first compound 0.1 µM
[21] = second compound 0.316 µM, first compound 0.316 µM
[22] = second compound 0.316 µM, first compound 1 µM
[23] = second compound 0.316 µM, first compound 3.16 µM
[24] = second compound 0.316 µM, first compound 10 µM
[25] = second compound 1 µM, first compound 0.0316 µM
[26] = second compound 1 µM, first compound 0.1 µM
[27] = second compound 1 µM, first compound 0.316 µM
[28] = second compound 1 µM, first compound 1 µM
[29] = second compound 1 µM, first compound 3.16 µM
[30] = second compound 1 µM, first compound 10 µM
[31] = second compound 3.16 µM, first compound 0.0316 µM
[32] = second compound 3.16 µM, first compound 0.1 µM
[33] = second compound 3.16 µM, first compound 0.316 µM
[34] = second compound 3.16 µM, first compound 1 µM
[35] = second compound 3.16 µM, first compound 3.16 µM
[36] = second compound 3.16 µM, first compound 10 µM
[37] = second compound 10 µM, first compound 0.0316 µM
[38] = second compound 10 µM, first compound 0.1 µM
[39] = second compound 10 µM, first compound 0.316 µM
[40] = second compound 10 µM, first compound 1 µM
[41] = second compound 10 µM, first compound 3.16 µM
[42] = second compound 10 µM, first compound 10 µM
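Also: spheroids exposed to agents for seven days before read-out.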

CC1(C)CCC(Nc2ncc(C(F)(F)F)c(-c3c[nH]c4c(P(C)(C)=O)c(C#N)ccc34)n2)CN1 (stereo unspecified) + CC(Nc1ncnc2nc[nH]c12)c1cc2cccc(Cl)c2c(=O)n1-c1ccccc1
IC50 [1]: > 10 µM
IC50 [2]: 7.06 µM
IC50 [3]: > 10 µM
IC50 [4]: 4.51 µM
IC50 [5]: 5.35 µM
IC50 [6]: 2.33 µM
viability, T/C [7]: 104%
viability, T/C [8]: 85.5%
viability, T/C [9]: 67.9%
viability, T/C [10]: 67.4%
viability, T/C [11]: 66.2%
viability, T/C [12]: 44.5%
viability, T/C [13]: 139%
viability, T/C [14]: 108%
viability, T/C [15]: 69.2%
viability, T/C [16]: 68.7%
viability, T/C [17]: 78.7%
viability, T/C [18]: 45.2%
viability, T/C [19]: 101%
viability, T/C [20]: 98.4%
viability, T/C [21]: 75.3%
viability, T/C [22]: 58.6%
viability, T/C [23]: 76.8%
viability, T/C [24]: 45%
viability, T/C [25]: 107%
viability, T/C [26]: 93.6%
viability, T/C [27]: 74.7%
viability, T/C [28]: 64.6%
viability, T/C [29]: 62.9%
viability, T/C [30]: 36.9%
viability, T/C [31]: 101%
viability, T/C [32]: 82.4%
viability, T/C [33]: 63.8%
viability, T/C [34]: 70.9%
viability, T/C [35]: 65.1%
viability, T/C [36]: 36.7%
viability, T/C [37]: 94.9%
viability, T/C [38]: 88.5%
viability, T/C [39]: 63.3%
viability, T/C [40]: 62%
viability, T/C [41]: 59.6%
viability, T/C [42]: 21.6%

CC(C)n1nc(-c2ccc3oc(N)nc3c2)c2c(N)ncnc21
viability, T/C (compound 0.000316 µM): 103% [middle of 4 runs]
viability, T/C (compound 0.001 µM): 104% [middle of 4 runs]
viability, T/C (compound 0.00316 µM): 99.9% [middle of 4 runs]
viability, T/C (compound 0.01 µM): 98.2% [middle of 4 runs]
viability, T/C (compound 0.0316 µM): 95.5% [middle of 4 runs]
viability, T/C (compound 0.1 µM): 78.2% [middle of 4 runs]
IC50 (curve of compound): > 0.1 µM

C#Cc1c(F)ccc2cc(O)cc(-c3ncc4c(N5CC6CCC(C5)N6)nc(OCC56CCCN5CC(F)C6)nc4c3F)c12 (stereo unspecified) + CC(Nc1ncnc2nc[nH]c12)c1cc2cccc(Cl)c2c(=O)n1-c1ccccc1
IC50 [1]: > 10 µM
IC50 [2]: > 10 µM
IC50 [3]: > 10 µM
IC50 [4]: > 10 µM
IC50 [5]: > 10 µM
IC50 [6]: > 10 µM
viability, T/C [7]: 120%
viability, T/C [8]: 101%
viability, T/C [9]: 99.1%
viability, T/C [10]: 91.7%
viability, T/C [11]: 90.9%
viability, T/C [12]: 92.9%
viability, T/C [13]: 116%
viability, T/C [14]: 98.7%
viability, T/C [15]: 96.4%
viability, T/C [16]: 90.1%
viability, T/C [17]: 98.2%
viability, T/C [18]: 90.6%
viability, T/C [19]: 110%
viability, T/C [20]: 106%
viability, T/C [21]: 91.1%
viability, T/C [22]: 100%
viability, T/C [23]: 101%
viability, T/C [24]: 96.2%
viability, T/C [25]: 98.9%
viability, T/C [26]: 91.6%
viability, T/C [27]: 104%
viability, T/C [28]: 84.1%
viability, T/C [29]: 115%
viability, T/C [30]: 77.5%
viability, T/C [31]: 89.4%
viability, T/C [32]: 89.9%
viability, T/C [33]: 93.5%
viability, T/C [34]: 85.1%
viability, T/C [35]: 92%
viability, T/C [36]: 87.4%
viability, T/C [37]: 87.5%
viability, T/C [38]: 98.2%
viability, T/C [39]: 88.2%
viability, T/C [40]: 91.3%
viability, T/C [41]: 99.9%
viability, T/C [42]: 75.1%
